Each compound was assayed against T1, hERG channel (Homo sapiens, UniProt Q12809) (assay: hERG electrophysiology, automated whole-cell patch clamp (Patchliner)). Conditions: CHO-K1 cells stably expressing hERG; whole-cell current, Hill fit.
T1 construct: expressed in transfected cells
T1 sequence (Q12809 whole entry): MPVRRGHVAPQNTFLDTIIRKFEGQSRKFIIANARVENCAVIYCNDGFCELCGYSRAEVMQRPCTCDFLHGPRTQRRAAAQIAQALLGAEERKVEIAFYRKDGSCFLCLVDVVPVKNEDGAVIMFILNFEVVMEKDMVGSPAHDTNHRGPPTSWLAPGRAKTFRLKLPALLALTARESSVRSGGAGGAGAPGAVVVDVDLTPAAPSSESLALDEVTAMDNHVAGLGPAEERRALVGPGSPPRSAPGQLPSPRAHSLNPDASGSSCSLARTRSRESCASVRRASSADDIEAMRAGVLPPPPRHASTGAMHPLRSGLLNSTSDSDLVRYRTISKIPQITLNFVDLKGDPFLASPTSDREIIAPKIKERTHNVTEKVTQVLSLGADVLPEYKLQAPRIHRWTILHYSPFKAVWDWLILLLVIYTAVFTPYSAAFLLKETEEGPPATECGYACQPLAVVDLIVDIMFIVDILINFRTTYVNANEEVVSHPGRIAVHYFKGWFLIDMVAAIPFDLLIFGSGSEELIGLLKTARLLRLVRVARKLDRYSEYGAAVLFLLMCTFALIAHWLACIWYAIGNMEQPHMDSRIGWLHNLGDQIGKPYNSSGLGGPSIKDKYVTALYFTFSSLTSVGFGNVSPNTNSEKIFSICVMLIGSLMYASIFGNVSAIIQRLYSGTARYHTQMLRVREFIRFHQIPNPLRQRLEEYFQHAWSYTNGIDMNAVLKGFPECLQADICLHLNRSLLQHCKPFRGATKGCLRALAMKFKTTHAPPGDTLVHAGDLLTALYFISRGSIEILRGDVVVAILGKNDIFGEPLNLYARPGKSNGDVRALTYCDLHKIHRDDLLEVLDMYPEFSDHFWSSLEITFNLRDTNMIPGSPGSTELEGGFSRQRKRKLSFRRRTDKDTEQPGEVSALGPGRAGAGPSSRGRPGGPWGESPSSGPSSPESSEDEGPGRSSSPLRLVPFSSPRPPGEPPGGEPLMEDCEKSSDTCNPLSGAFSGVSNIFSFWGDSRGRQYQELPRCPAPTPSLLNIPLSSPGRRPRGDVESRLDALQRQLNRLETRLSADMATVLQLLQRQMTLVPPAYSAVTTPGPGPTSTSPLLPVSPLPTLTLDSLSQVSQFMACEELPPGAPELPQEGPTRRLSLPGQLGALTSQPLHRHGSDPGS
Type: cell-based
Experimental: Example 10. Evaluation of hERG Activities
This assay is used to evaluate the disclosed compounds' inhibition activities against the hERG channel.
CHO-K1 cells stably expressing hERG were grown in Ham's F-12 Medium with Glutamine containing 10% heat-inactivated FBS, 1% Penicillin/Streptomycin, Hygromycin (100 μg/ml) and G418 (100 μg/ml). Cells were grown in culture flasks at 37° C. in a 5% CO2-humidified incubator.
(§1) The cells were bathed in an extracellular solution containing 140 mM NaCl, 4 mM KCl, 2 mM CaCl2), 1 mM MgCl2, 5 mM Glucose, 10 mM HEPES; pH adjusted to 7.4 with NaOH; 295-305 mOsm. The internal solution contained 50 mM KCl, 10 mM NaCl, 60 mM KF, 20 mM EGTA, 10 mM HEPES; pH adjusted to 7.2 with KOH; 285 mOsm. All compounds were dissolved in DMSO at 30 mM. Compound stock solutions were freshly diluted with external solution to concentrations of 30 nM, 100 nM, 300 nM, 1 μM, 3 μM, 10 μM, 30 μM and 100 μM. The highest content of DMSO (0.3%) was present in 100 μM.
The voltage protocol (see Table B) was designed to simulate voltage changes during a cardiac action potential with a 300 ms depolarization to +20 mV (analogous to the plateau phase of the cardiac action potential), a repolarization for 300 ms to −50 mV (inducing a tail current) and a final step to the holding potential of −80 mV. The pulse frequency was 0.3 Hz. Control (compound-free) and compound pulse trains for each compound concentration applied contained 70 pulses.
(§2) Whole-cell current recordings and compound application were enabled by means of an automated patch clamp platform Patchliner (Nanion). EPC 10 patch clamp amplifier (HEKA) along with Patchmaster software (HEKA Elektronik Dr. Schulze GmbH) was used for data acquisition. Data were sampled at 10 kHz without filtering. Increasing compound concentrations were applied consecutively to the same cell without washouts in between.
(§3) AUC and PEAK values were obtained with Patchmaster (HEKA Elektronik Dr. Schulze GmbH). To determine IC50 the last single pulse in the pulse train corresponding to a given compound concentration was used. Obtained AUC and PEAK values in the presence of compound were normalized to control values in the absence of compound. Using Origin (OridinLab), IC50 was derived from data fit to Hill equation: Icompound/Icontrol=(100−A)/(1+([compound]/IC50)nH)+A, where IC50 is the concentration at which current inhibition is half-maximal, [compound] is the applied compound concentration, A is the fraction of current that is not blocked and nH is the Hill coefficient.
`O=C1[C@@H]2C[C@H](c3c(O)ccc(Cl)c3Cl)CCN2C(=O)CN1CCO` (relative stereo) [Compound 7, (8R,9aS)-rel-8-(2,3-dichloro-6-hydroxyphenyl)-2-(2-hydroxyethyl)hexahydro-4H-pyrido[1,2-a]pyrazine-1,4(6H)-dione] gave an IC50 greater than 30 µM. Compound `O=C1[C@H]2C[C@H](c3c(O)ccc(Cl)c3Cl)CCN2C(=O)CN1CCO` (relative stereo) [Compound 18, (8R,9aR)-rel-8-(2,3-dichloro-6-hydroxyphenyl)-2-(2-hydroxyethyl)-hexahydropyrido[1,2-a]pyrazine-1,4-dione] has an IC50 greater than 30 µM. Compound `O=C1[C@@H]2C[C@H](c3c(O)ccc(Cl)c3Cl)CCN2C(=O)CN1C1CC(O)C1` (relative stereo) [Compound 20, (8R,9aS)-rel-8-(2,3-dichloro-6-hydroxyphenyl)-2-(3-hydroxycyclobutyl)-hexahydropyrido[1,2-a]pyrazine-1,4-dione] has an IC50 greater than 30 µM. `Cc1cc(O)c([C@@H]2CCN3C(=O)[C@@H](CO)NC(=O)[C@@H]3C2)c(Cl)c1Cl` (relative stereo) [Compound 22, (8R,9aS)-rel-8-(2,3-dichloro-6-hydroxy-4-methylphenyl)-3-((3R)-hydroxymethyl)-hexahydro-2H-pyrido[1,2-a]pyrazine-1,4-dione] showed an IC50 greater than 30 µM.

What follows are compounds tested against T2, Kv1.3 potassium channel (Homo sapiens, UniProt P22001) (assay: Kv1.3 potassium channel blocker activity, automated whole-cell patch clamp (Patchliner)). Conditions: CHO-K1 cells stably expressing Kv1.3; whole-cell current, Hill fit.
T2 construct: expressed in transfected cells
T2 sequence (P22001 whole entry): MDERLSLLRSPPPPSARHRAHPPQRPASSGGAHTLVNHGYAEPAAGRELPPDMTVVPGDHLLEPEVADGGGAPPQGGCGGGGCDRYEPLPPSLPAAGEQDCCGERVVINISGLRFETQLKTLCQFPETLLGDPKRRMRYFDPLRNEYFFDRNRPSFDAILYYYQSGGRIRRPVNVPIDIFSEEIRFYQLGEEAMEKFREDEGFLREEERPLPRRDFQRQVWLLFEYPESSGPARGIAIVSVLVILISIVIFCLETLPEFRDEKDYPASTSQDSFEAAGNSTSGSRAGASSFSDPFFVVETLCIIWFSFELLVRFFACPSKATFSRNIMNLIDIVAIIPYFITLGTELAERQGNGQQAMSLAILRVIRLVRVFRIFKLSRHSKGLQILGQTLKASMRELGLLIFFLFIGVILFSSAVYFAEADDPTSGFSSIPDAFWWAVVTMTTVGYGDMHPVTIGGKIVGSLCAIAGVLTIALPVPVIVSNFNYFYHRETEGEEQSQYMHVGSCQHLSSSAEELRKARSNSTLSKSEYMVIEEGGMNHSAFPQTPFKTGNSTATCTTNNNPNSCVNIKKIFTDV
Type: cell-based
Experimental: Example 9. Evaluation of Kv1.3 Potassium Channel Blocker Activities
This assay is used to evaluate the disclosed compounds' activities as Kv1.3 potassium channel blockers.
CHO-K1 cells stably expressing Kv1.3 were grown in DMEM containing 10% heat-inactivated FBS, 1 mM Sodium Pyruvate, 2 mM L-Glutamine and G418 (500 μg/ml). Cells were grown in culture flasks at 37° C. in a […] incubator.
as §1, with “CaCl2,” for “CaCl2),”
The currents were evoked by applying 100 ms depolarizing pulses from −90 mV (holding potential) to +40 mV were applied with 0.1 Hz frequency. Control (compound-free) and compound pulse trains for each compound concentration applied contained 20 pulses. 10-second breaks were used between pulse trains (see Table A below).
as §2, with “(Nanion Technologies GmbH).” for “(Nanion).”, “(HEKA Elektronik Dr. Schulze GmbH)” for “(HEKA)”, “filtering. Passive leak currents were subtracted online using a P/4 procedure (HEKA Elektronik Dr. Schulze GmbH).” for “filtering.”, “between. Total compound incubation time before the next pulse train was not longer than 10 seconds. Peak current inhibition was observed during compound equilibration.” for “between.”
as §3, with “AUC and peak values were” for “AUC and PEAK values were”, “To determine IC50, the last” for “To determine IC50 the last”, “AUC and peak values in” for “AUC and PEAK values in”, “where IC50 value is the” for “where IC50 is the”
For `O=C1[C@@H]2C[C@H](c3c(O)ccc(Cl)c3Cl)CCN2C(=O)CN1CCO` (relative stereo) [Compound 7, (8R,9aS)-rel-8-(2,3-dichloro-6-hydroxyphenyl)-2-(2-hydroxyethyl)hexahydro-4H-pyrido[1,2-a]pyrazine-1,4(6H)-dione], the IC50 was less than 1 µM. With `O=C1[C@H]2C[C@H](c3c(O)ccc(Cl)c3Cl)CCN2C(=O)CN1CCO` (relative stereo) [Compound 18, (8R,9aR)-rel-8-(2,3-dichloro-6-hydroxyphenyl)-2-(2-hydroxyethyl)-hexahydropyrido[1,2-a]pyrazine-1,4-dione] the IC50 was less than 1 µM. `O=C1[C@@H]2C[C@H](c3c(O)ccc(Cl)c3Cl)CCN2C(=O)CN1C1CC(O)C1` (relative stereo) [Compound 20, (8R,9aS)-rel-8-(2,3-dichloro-6-hydroxyphenyl)-2-(3-hydroxycyclobutyl)-hexahydropyrido[1,2-a]pyrazine-1,4-dione] was tested, and the IC50 was less than 1 µM. In the case of `Cc1cc(O)c([C@@H]2CCN3C(=O)[C@@H](CO)NC(=O)[C@@H]3C2)c(Cl)c1Cl` (relative stereo) [Compound 22, (8R,9aS)-rel-8-(2,3-dichloro-6-hydroxy-4-methylphenyl)-3-((3R)-hydroxymethyl)-hexahydro-2H-pyrido[1,2-a]pyrazine-1,4-dione], the IC50 is reported as less than 1 µM. `CC(C)[C@@H](O)[C@@H]1NC(=O)[C@@H]2C[C@H](c3c(O)ccc(Cl)c3Cl)CCN2C1=O` [Compound 42, (3S,8R,9aS)-8-(2,3-dichloro-6-hydroxyphenyl)-3-[(1R)-1-hydroxy-2-methylpropyl]-hexahydro-2H-pyrido[1,2-a]pyrazine-1,4-dione] was tested, and the IC50 was less than 1 µM. Compound `O=C1[C@@H]2C[C@@H](O)CN2C(=O)[C@@H]2C[C@H](c3c(O)ccc(Cl)c3Cl)CCN12` [Compound 43, (2R,5aS,7R,11aS)-7-(2,3-dichloro-6-hydroxyphenyl)-2-hydroxyhexahydro-1H-pyrido[1,2-a]pyrrolo[1,2-d]pyrazine-5,11(5aH,11aH)-dione] has an IC50 of less than 10 µM. For `O=C1N[C@@H](CO)C(=O)N2CC[C@H](c3c(O)ccc(Cl)c3Cl)C[C@H]12` [Compound 46, (3S,8S,9aR)-8-(2,3-dichloro-6-hydroxyphenyl)-3-(hydroxymethyl)hexahydro-4H-pyrido[1,2-a]pyrazine-1,4(6H)-dione], the IC50 was less than 10 µM. `CC1(C)NC(=O)C2CC(c3c(O)ccc(Cl)c3Cl)CCN2C1=O` (stereo not drawn) [Compound 47, 8-(2,3-dichloro-6-hydroxyphenyl)-3,3-dimethyl-octahydro-1H-pyrido[1,2-a]pyrazine-1,4-dione] showed an IC50 of less than 10 µM. In the case of `CC(C)[C@H]1NC(=O)[C@H]2C[C@@H](c3c(O)ccc(Cl)c3Cl)CCN2C1=O` [Compound 48, (8S,9aR)-8-(2,3-dichloro-6-hydroxyphenyl)-3-(3R)-isopropyl-hexahydro-2H-pyrido[1,2-a]pyrazine-1,4-dione], the IC50 is reported as less than 10 µM. In the case of `CC[C@H]1NC(=O)[C@@H]2C[C@H](c3c(O)ccc(Cl)c3Cl)CCN2C1=O` [Compound 51, (8R,9aS)-8-(2,3-dichloro-6-hydroxyphenyl)-3-(3R)-ethyl-hexahydro-2H-pyrido[1,2-a]pyrazine-1,4-dione], the IC50 is reported as less than 30 µM. Compound `CC(C)[C@H]1NC(=O)[C@@H]2C[C@H](c3c(O)ccc(Cl)c3Cl)CCN2C1=O` [Compound 54, (8R,9aS)-8-(2,3-dichloro-6-hydroxyphenyl)-3-(3R)-isopropyl-hexahydro-2H-pyrido[1,2-a]pyrazine-1,4-dione] has an IC50 of less than 1 µM. Work on `O=C1NCC(=O)N2CC[C@H](c3c(O)ccc(Cl)c3Cl)C[C@H]12` [Compound 56, (8S,9aR)-8-(2,3-dichloro-6-hydroxyphenyl)hexahydro-4H-pyrido[1,2-a]pyrazine-1,4(6H)-dione] yielded an IC50 of less than 10 µM. In the case of `O=C1N[C@H](CO)C(=O)N2CC[C@H](c3c(O)ccc(Cl)c3Cl)C[C@H]12` [Compound 57, (3R,8S,9aR)-8-(2,3-dichloro-6-hydroxyphenyl)-3-(hydroxymethyl)hexahydro-4H-pyrido[1,2-a]pyrazine-1,4(6H)-dione], the IC50 is reported as less than 10 µM. `O=C1[C@H]2C[C@@H](O)CN2C(=O)[C@H]2C[C@@H](c3c(O)ccc(Cl)c3Cl)CCN12` [Compound 59, (2R,5aR,7S,11aR)-7-(2,3-dichloro-6-hydroxyphenyl)-2-hydroxyhexahydro-1H-pyrido[1,2-a]pyrrolo[1,2-d]pyrazine-5,11(5aH,11aH)-dione] showed an IC50 of less than 10 µM. `CC(C)[C@H](O)[C@H]1NC(=O)[C@H]2C[C@@H](c3c(O)ccc(Cl)c3Cl)CCN2C1=O` [Compound 61, (3R,8S,9aR)-8-(2,3-dichloro-6-hydroxyphenyl)-3-[(1S)-1-hydroxy-2-methylpropyl]-hexahydro-2H-pyrido[1,2-a]pyrazine-1,4-dione] gave an IC50 of less than 10 µM. `C[C@H]1NC(=O)[C@H]2C[C@@H](c3c(O)ccc(Cl)c3Cl)CCN2C1=O` [Compound 62, (3R,8S,9aR)-8-(2,3-dichloro-6-hydroxyphenyl)-3-methyl-hexahydro-2H-pyrido[1,2-a]pyrazine-1,4-dione] was tested, and the IC50 was less than 10 µM. In the case of `O=C1N[C@H](CCO)C(=O)N2CC[C@H](c3c(O)ccc(Cl)c3Cl)C[C@H]12` [Compound 63, (3R,8S,9aR)-8-(2,3-dichloro-6-hydroxyphenyl)-3-(2-hydroxyethyl)-hexahydro-2H-pyrido[1,2-a]pyrazine-1,4-dione], the IC50 is reported as less than 30 µM. `O=C1N[C@H](CO)C(=O)N2CC[C@H](c3c(O)cc(Cl)c(Cl)c3Cl)C[C@H]12` [Compound 66, (8S,9aR)3-((3R)-hydroxymethyl)-8-(2,3,4-trichloro-6-hydroxyphenyl)-hexahydro-2H-pyrido[1,2-a]pyrazine-1,4-dione] showed an IC50 of less than 10 µM. For `C[C@H](O)[C@H]1NC(=O)[C@H]2C[C@@H](c3c(O)ccc(Cl)c3Cl)CCN2C1=O` [Compound 67, (3R,8S,9aR)-8-(2,3-dichloro-6-hydroxyphenyl)-3-[(1S)-1-hydroxyethyl]-hexahydro-2H-pyrido[1,2-a]pyrazine-1,4-dione], the IC50 was less than 10 µM. For `O=C1N[C@H](CCO)C(=O)N2CC[C@@H](c3c(O)ccc(Cl)c3Cl)C[C@@H]12` [Compound 70, (3R,8R,9aS)-8-(2,3-dichloro-6-hydroxyphenyl)-3-(2-hydroxyethyl)-hexahydro-2H-pyrido[1,2-a]pyrazine-1,4-dione], the IC50 was less than 1 µM.

Source: patent publication US20230040182A1, “ARYL HETEROBICYCLIC COMPOUNDS AS Kv1.3 POTASSIUM SHAKER CHANNEL BLOCKERS” (priority 2019, published 2023)
